# Where “and” joins values, the source holds several entries; their conditions need not be identical. Equal values may be shown once. Toxic doses and inconclusive results are not listed.
# System: P388 leukemia ip, CD2F1 mice, survival T/C
# Test: NCI In Vivo Anticancer Drug Screen. Data for tumor model P388 Leukemia (intraperitoneal) in CD2F1 (CDF1) mice
# Details: endpoint: median survival time, higher = longer survival
# Procedure, shortened: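 Mice carrying the transplanted tumor received test compound or vehicle. Survival was recorded in each group, and the value is the treated-group measurement divided by that of the vehicle-treated control group.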
# [1] = dose: 50.0 mg/kg/injection, schedule: Q01DX009 (ip), vehicle: saline
# [2] = dose: 50.0 mg/kg/injection, schedule: Q04DX003 (ip), vehicle: saline
smiles,measurement,setting,value
[N-]=[N+]=CC(=O)CCC(N)C(=O)O (stereo not drawn),T/C,"dose: 0.04 mg/kg/injection, schedule: Q01DX009 (ip), vehicle: saline",121 % of control
same,T/C,"dose: 0.05 mg/kg/injection, schedule: Q01DX009 (ip), vehicle: saline",158 % of control
same,T/C,"dose: 0.08 mg/kg/injection, schedule: Q01DX005 (ip), vehicle: saline",118 % of control
same,T/C,"dose: 0.08 mg/kg/injection, schedule: Q01DX005 (iv), vehicle: saline",109 % of control
same,T/C,"dose: 0.08 mg/kg/injection, schedule: Q01DX009 (ip), vehicle: saline",155 % of control
same,T/C,"dose: 0.1 mg/kg/injection, schedule: Q01DX009 (ip), vehicle: saline",178 % of control
same,T/C,"dose: 0.15 mg/kg/injection, schedule: Q01DX005 (ip), vehicle: saline",121 % of control
same,T/C,"dose: 0.15 mg/kg/injection, schedule: Q01DX005 (iv), vehicle: saline",110 % of control
same,T/C,"dose: 0.15 mg/kg/injection, schedule: Q01DX009 (ip), vehicle: saline",161 % of control and 171 % of control
same,T/C,"dose: 0.2 mg/kg/injection, schedule: Q01DX009 (ip), vehicle: saline",206 % of control
same,T/C,"dose: 0.3 mg/kg/injection, schedule: Q01DX005 (iv), vehicle: saline",112 % of control
same,T/C,"dose: 0.3 mg/kg/injection, schedule: Q01DX009 (ip), vehicle: saline",103 % of control and 105 % of control
same,T/C,"dose: 0.4 mg/kg/injection, schedule: Q01DX009 (ip), vehicle: saline",235 % of control
same,T/C,"dose: 0.6 mg/kg/injection, schedule: Q01DX005 (ip), vehicle: saline",153 % of control
same,T/C,"dose: 0.6 mg/kg/injection, schedule: Q01DX009 (ip), vehicle: saline",87 % of control
same,T/C,"dose: 0.8 mg/kg/injection, schedule: Q01DX009 (ip), vehicle: saline",94 % of control
same,T/C,"dose: 1.0 mg/kg/injection, schedule: Q04DX003 (ip), vehicle: saline",160 % of control
same,T/C,"dose: 2.0 mg/kg/injection, schedule: Q04DX003 (ip), vehicle: saline",158 % of control
same,T/C,"dose: 4.0 mg/kg/injection, schedule: Q04DX003 (ip), vehicle: saline",180 % of control
same,T/C,"dose: 8.0 mg/kg/injection, schedule: Q04DX003 (ip), vehicle: saline",202 % of control
same,T/C,"dose: 16.0 mg/kg/injection, schedule: Q04DX003 (ip), vehicle: saline",247 % of control
same,T/C,"dose: 54.0 micrograms/kg/injection, schedule: Q01DX009 (ip), vehicle: saline",151 % of control and 158 % of control
same,T/C,"dose: 62.5 micrograms/kg/injection, schedule: Q01DX009 (ip), vehicle: saline",160 % of control
same,T/C,"dose: 90.0 micrograms/kg/injection, schedule: Q01DX009 (ip), vehicle: saline",166 % of control and 182 % of control
same,T/C,"dose: 125.0 micrograms/kg/injection, schedule: Q01DX009 (ip), vehicle: saline",190 % of control
same,T/C,"dose: 150.0 micrograms/kg/injection, schedule: Q01DX009 (ip), vehicle: saline",188 % of control and 192 % of control
same,T/C,"dose: 250.0 micrograms/kg/injection, schedule: Q01DX009 (ip), vehicle: saline",109 % of control and 208 % of control and 236 % of control
same,T/C,"dose: 417.0 micrograms/kg/injection, schedule: Q01DX009 (ip), vehicle: saline",221 % of control and 90 % of control
same,T/C,"dose: 500.0 micrograms/kg/injection, schedule: Q01DX009 (ip), vehicle: saline",94 % of control
Nc1ccc2cc3ccc(N)cc3nc2c1,T/C,"dose: 12.5 mg/kg/injection, schedule: Q01DX009 (ip), vehicle: saline",122 % of control
same,T/C,"dose: 15.0 mg/kg/injection, schedule: Q01DX005 (ip), vehicle: saline",109 % of control
same,T/C,[1],95 % of control
same,T/C,[2],86 % of control
CCOc1cc(CN2CCN(CCO)CC2)c(O)c(CN2CCN(CCO)CC2)c1,T/C,"dose: 60.0 mg/kg/injection, schedule: Q01DX005 (ip), vehicle: water",97 % of control
same,T/C,"dose: 120.0 mg/kg/injection, schedule: Q01DX005 (ip), vehicle: water",103 % of control
same,T/C,"dose: 240.0 mg/kg/injection, schedule: Q01DX005 (ip), vehicle: water",104 % of control
CCCCCCC(Cn1ccnc1)c1ccccc1Cl (stereo not drawn),T/C,"dose: 25.0 mg/kg/injection, schedule: Q04DX003 (ip), vehicle: saline with Tween-80",100 % of control
same,T/C,"dose: 50.0 mg/kg/injection, schedule: Q04DX003 (ip), vehicle: saline with Tween-80",98 % of control
same,T/C,"dose: 100.0 mg/kg/injection, schedule: Q04DX003 (ip), vehicle: saline with Tween-80",106 % of control
Cc1cccc2c(OCC3CO3)cc(=O)[nH]c12 (stereo not drawn),T/C,"dose: 25.0 mg/kg/injection, schedule: Q01DX005 (ip), vehicle: saline with Tween-80",110 % of control
same,T/C,"dose: 50.0 mg/kg/injection, schedule: Q01DX005 (ip), vehicle: saline with Tween-80",114 % of control and 118 % of control
Cc1[nH]c(C)c2ccc(=O)ccc12,T/C,"dose: 30.0 mg/kg/injection, schedule: Q01DX005 (ip), vehicle: suspension in saline",101 % of control
same,T/C,"dose: 60.0 mg/kg/injection, schedule: Q01DX005 (ip), vehicle: suspension in saline",94 % of control and 97 % of control
same,T/C,"dose: 120.0 mg/kg/injection, schedule: Q01DX005 (ip), vehicle: suspension in saline",88 % of control
same,T/C,"dose: 240.0 mg/kg/injection, schedule: Q01DX005 (ip), vehicle: suspension in saline",93 % of control
O=C1C2C3CCC(C2C(=O)N1COP(=O)(O)O)C1C2C(=O)N(COP(=O)(O)O)C(=O)C2C31 (stereo not drawn),T/C,"dose: 40.0 mg/kg/injection, schedule: Q01DX009 (ip), vehicle: water",103 % of control
same,T/C,"dose: 80.0 mg/kg/injection, schedule: Q01DX009 (ip), vehicle: water",105 % of control
same,T/C,"dose: 160.0 mg/kg/injection, schedule: Q01DX009 (ip), vehicle: water",105 % of control
same,T/C,"dose: 320.0 mg/kg/injection, schedule: Q01DX009 (ip), vehicle: water",124 % of control
CN(CCC#N)c1ccc(/C=C(\C#N)C(N)=O)cc1,T/C,"dose: 20.0 mg/kg/injection, schedule: Q01DX009 (ip), vehicle: saline with Tween-80",101 % of control
same,T/C,"dose: 25.0 mg/kg/injection, schedule: Q01DX009 (ip), vehicle: saline with Tween-80",97 % of control
same,T/C,"dose: 40.0 mg/kg/injection, schedule: Q01DX009 (ip), vehicle: saline with Tween-80",89 % of control
same,T/C,"dose: 50.0 mg/kg/injection, schedule: Q01DX009 (ip), vehicle: saline with Tween-80",98 % of control
same,T/C,"dose: 100.0 mg/kg/injection, schedule: Q01DX009 (ip), vehicle: saline with Tween-80",97 % of control
same,T/C,"dose: 160.0 mg/kg/injection, schedule: Q01DX009 (ip), vehicle: saline with Tween-80",90 % of control
same,T/C,"dose: 200.0 mg/kg/injection, schedule: Q01DX009 (ip), vehicle: saline with Tween-80",97 % of control
CCN(CC)CCC(=O)Nc1cccc2c1C(=O)c1c(c(O)c3ccccc3c1O)C2=O,T/C,"dose: 6.25 mg/kg/injection, schedule: Q04DX003 (ip), vehicle: Klucel (hydroxypropylcellulose) (HPC)",100 % of control
same,T/C,"dose: 12.5 mg/kg/injection, schedule: Q04DX003 (ip), vehicle: Klucel (hydroxypropylcellulose) (HPC)",100 % of control
same,T/C,"dose: 25.0 mg/kg/injection, schedule: Q04DX003 (ip), vehicle: Klucel (hydroxypropylcellulose) (HPC)",104 % of control
same,T/C,"dose: 25.0 mg/kg/injection, schedule: Q04DX003 (ip), vehicle: saline",98 % of control
same,T/C,"dose: 50.0 mg/kg/injection, schedule: Q04DX003 (ip), vehicle: Klucel (hydroxypropylcellulose) (HPC)",100 % of control
same,T/C,[2],92 % of control
same,T/C,"dose: 100.0 mg/kg/injection, schedule: Q04DX003 (ip), vehicle: Klucel (hydroxypropylcellulose) (HPC)",106 % of control
same,T/C,"dose: 100.0 mg/kg/injection, schedule: Q04DX003 (ip), vehicle: saline",108 % of control
same,T/C,"dose: 200.0 mg/kg/injection, schedule: Q04DX003 (ip), vehicle: saline",100 % of control
CCCSP(=S)(c1ccc(Cl)cc1)c1ccc(Cl)cc1,T/C,"dose: 100.0 mg/kg/injection, schedule: Q04DX002 (ip), vehicle: saline",106 % of control
same,T/C,"dose: 200.0 mg/kg/injection, schedule: Q04DX002 (ip), vehicle: saline",103 % of control
same,T/C,"dose: 400.0 mg/kg/injection, schedule: Q04DX002 (ip), vehicle: saline",103 % of control
COc1ccc(CC2=NCCc3cc(OC)c(OC)cc32)cc1OC,T/C,"dose: 22.0 mg/kg/injection, schedule: Q01DX009 (ip), vehicle: saline",104 % of control
same,T/C,"dose: 33.0 mg/kg/injection, schedule: Q01DX009 (ip), vehicle: saline",103 % of control
same,T/C,[1],103 % of control
same,T/C,"dose: 75.0 mg/kg/injection, schedule: Q01DX009 (ip), vehicle: saline",102 % of control
COc1ccc(S(N)(=O)=O)cc1C(=O)N1CCN2CCCC2C1 (stereo not drawn),T/C,"dose: 60.0 mg/kg/injection, schedule: Q01DX005 (ip), vehicle: saline",100 % of control
same,T/C,"dose: 120.0 mg/kg/injection, schedule: Q01DX005 (ip), vehicle: saline",100 % of control
same,T/C,"dose: 240.0 mg/kg/injection, schedule: Q01DX005 (ip), vehicle: saline",94 % of control
CC(=O)[O-].CC(=O)[O-].O=C(N/N=C/c1ccccc1[OH2+])c1ccncc1.[Zn+2],T/C,"dose: 60.0 mg/kg/injection, schedule: Q01DX005 (ip), vehicle: Klucel (hydroxypropylcellulose) (HPC)",100 % of control
same,T/C,"dose: 120.0 mg/kg/injection, schedule: Q01DX005 (ip), vehicle: Klucel (hydroxypropylcellulose) (HPC)",100 % of control
same,T/C,"dose: 240.0 mg/kg/injection, schedule: Q01DX005 (ip), vehicle: Klucel (hydroxypropylcellulose) (HPC)",99 % of control

# Reference: PubChem BioAssay AID330 (DTP/NCI, 2004)
